Source: patent US9353072B2, “Antimicrobial substituted thiazoles and methods of use” (Purdue Research Foundation, priority 2012, dated 2016)
In brackets after ≈: the same amount, converted by molar mass. Entries after “also recorded” stand apart in the source; their conditions may differ. Read-outs that look alike come from different tables or passages of the source. Blank lines part the entries; values can stand above or below the compound they belong to.

How the values were obtained:
[1] = test system: MRSA ATCC 43300; assay: Flow cytometry with LIVE/DEAD Fixable Dead Cell Stain; format: cell-based, Staphylococcus aureus; conditions: compound 1a at 4.0×MIC; lysostaphin positive control; 10 minutes at 37° C.
Protocol: Flow cytometry and LIVE/DEAD® Fixable Dead Cell Stain: The action of the lead compound on cell membrane permeability of MRSA was assayed using the LIVE/DEAD® Fixable Dead Cell Stain Kit (Invitrogen, Eugene, Oreg., USA) according to the manufacturer's instructions. […] Post-treatment cells were fixed with 3.7% formaldehyde; the cells were then screened with a Beckman Coulter FC500 flow cytometer.

[2] = test system: MRSA ATCC 43300; assay: MIC/MBC broth microdilution, MRSA ATCC 43300; format: cell-based, Staphylococcus aureus; conditions: Staphylococcus aureus
Method in brief: (§1)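 MIC: CLSI broth microdilution; triplicate samples per strain.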

[3] = test system: 18 different strains of MRSA and VRSA; assay: MIC broth microdilution, panel of 18 MRSA and VRSA strains (summary statements); format: cell-based, Staphylococcus aureus; conditions: 18 strains of MRSA and VRSA
Protocol: (§2) Determination of minimum inhibitory concentration (MIC). The MICs of the lead thiazole compound (compound 1a) and nine derivatives tested against all 18 MRSA strains were determined, in triplicate samples, using the broth microdilution method in accordance with the recommendations contained in the CLSI guidelines.

[4] = test system: VRSA (VRS10); assay: MIC/MBC broth microdilution, VRSA (VRS10); format: cell-based, Staphylococcus aureus; conditions: Staphylococcus aureus, read-out: Minimum Inhibitory Concentration
Protocol: as §2

[5] = test system: MRSA NRS384 (USA300); assay: MIC/MBC broth microdilution, NRS384 (USA300); format: cell-based; conditions: Staphylococcus aureus
Method in brief: as §1

[6] = test system: NRS107; assay: MIC/MBC broth microdilution, NRS107; format: cell-based; conditions: Staphylococcus aureus
Method in brief: as §1

[7] = test system: MRSA USA400 (NRS123); assay: MIC/MBC broth microdilution, NRS123 (USA400); format: cell-based; conditions: Staphylococcus aureus, Table 8, NRS123
Method in brief: as §1

[8] = test system: MRSA (USA300); assay: Time-kill assay; format: cell-based, Staphylococcus aureus; conditions: 3.0×MIC
Protocol: Time-kill assay. […] Viable CFU/mL was determined by serial dilution and plating on trypticase soy agar (TSA) (Becton, Dickinson and Company, Sparks, Md., USA) plates after 0, 2, 4, 6, 8, 10, and 12 hours of incubation at 37° C. to identify the time required to reduce the bacterial cell count by 3-log10.

[9] = test system: MRSA ATCC 700699 (NRS1, VISA); assay: MIC/MBC broth microdilution, NRS1 (ATCC 700699); format: cell-based; conditions: Staphylococcus aureus
Method in brief: as §1

[10] = test system: MRSA USA800; assay: MIC broth microdilution, MRSA USA800; format: cell-based; conditions: Staphylococcus aureus, Table 2, read-out: Minimum Inhibitory Concentration
Protocol: as §2

[11] = test system: VISA HIP07256 (NRS19); assay: MIC/MBC broth microdilution, NRS19 (VISA HIP07256); format: cell-based; conditions: Staphylococcus aureus
Method in brief: as §1

[12] = test system: MRSA USA500 (NRS385); assay: MIC/MBC broth microdilution, NRS385 (USA500); format: cell-based; conditions: Staphylococcus aureus
Method in brief: as §1

[13] = test system: NRS194; assay: MIC/MBC broth microdilution, NRS194; format: cell-based; conditions: Staphylococcus aureus
Method in brief: as §1

[14] = test system: VISA LIM 3 (NRS37); assay: MIC/MBC broth microdilution, NRS37 (VISA LIM 3); format: cell-based; conditions: Staphylococcus aureus
Method in brief: as §1

[15] = test system: NRS119; assay: MIC/MBC broth microdilution, NRS119; format: cell-based; conditions: Staphylococcus aureus
Method in brief: as §1

[16] = test system: MRSA USA100; assay: MIC broth microdilution, MRSA USA100; format: cell-based; conditions: Staphylococcus aureus; Table 2; MRSA USA100; read-out: Minimum Inhibitory Concentration
Protocol: as §2

[17] = test system: MRSA USA700; assay: MIC broth microdilution, MRSA USA700; format: cell-based; conditions: Staphylococcus aureus, Table 2, read-out: Minimum Inhibitory Concentration
Protocol: as §2

[18] = test system: murine macrophage cells (J774.A1); assay: In vitro cytotoxicity analysis, MTS assay; format: cell-based; conditions: 16 μM, 24 hours
Protocol: In vitro cytotoxicity analysis: Compounds were assayed at concentrations of 2 μM, 4 μM, 8 μM, and 16 μM against a macrophage cell line (J774.A1) to determine the potential toxic effect in vitro. Murine macrophage cells were cultured in Dulbeco's Modified Eagle Medium (Sigma-Aldrich, St. Louis, Mo., USA) with 10% Fetal Bovine Serum (USA Scientific, Inc.) at 37° C. with 5% CO2. Controls received DMSO alone at a concentration equal to that in drug-treated cell samples. The cells were incubated with the compounds in a 96-Well Plate at 37° C. and 5.0% CO2 for 24 hours prior to addition of the assay reagent MTS 3-(4,5-dimethylthiazol-2-yl)-5-(3-carboxymethoxyphenyl)-2-(4-sulfophenyl)-2H-tetrazolium) (Promega, Madison, Wis., USA). The reagent measures the succinate dehydrogenase mitochondrial activity as an indicator of cell viability and proliferation. Corrected absorbance readings (actual absorbance readings for each treatment subtracted from background absorbance) were taken using a kinetic ELISA microplate reader (Molecular Devices, Sunnyvale, Calif., USA). The quantity of viable cells after treatment with each compound was expressed as a percentage of the control, DMSO.

[19] = test system: MRSA USA1000; assay: MIC broth microdilution, MRSA USA1000; format: cell-based; conditions: Staphylococcus aureus, Table 2, read-out: Minimum Inhibitory Concentration
Protocol: as §2

[20] = test system: MRSA USA200; assay: MIC broth microdilution, MRSA USA200; format: cell-based; conditions: Staphylococcus aureus; Table 2; MRSA USA200; read-out: Minimum Inhibitory Concentration
Protocol: as §2

[21] = Table 2, MRSA USA300, read-out: Minimum Inhibitory Concentration
[22] = Table 2, MRSA ATCC 700699, read-out: Minimum Inhibitory Concentration
[23] = Table 2, MRSA USA500, read-out: Minimum Inhibitory Concentration
[24] = Table 2, VISA LIM 3, read-out: Minimum Inhibitory Concentration

MIC ([2]; Table 4, MRSA ATCC 43300, 64 μM down to 0.5 μM, 37° C., 19 hours, read-out: Minimum Inhibitory Concentration): 4 µM (≈ 1.32 µg/mL)
MIC ([2]; Table 7, MRSA (ATCC 43300), read-out: Minimum Inhibitory Concentration): 4 µM (≈ 1.32 µg/mL)
MIC ([2]; Table 8, ATCC 43300, read-out: MIC): 4 µM (≈ 1.32 µg/mL)
concentration inhibiting growth (MIC), range over the strains tested [3]: 1.4 to 5.5 µg/mL
MIC ([4]; Table 7, VRSA (VRS10)): 4 µM
MIC [5, 21]: 1.4 µg/mL
MIC ([5]; Table 5, MRSA NRS384 (USA300), 128 μM down to 1.0 μM, 37° C., 19 hours, read-out: Minimum Inhibitory Concentration): 4 µM
MIC ([5]; Table 8, NRS384, read-out: MIC): 4 µM
MIC ([6]; Table 8, read-out: MIC): 8 µM
MIC ([7]; read-out: MIC): 4 µM (≈ 1.32 µg/mL)
MIC [9, 22]: 1.4 µg/mL
MIC ([9]; Table 7, VISA (NRS1), read-out: Minimum Inhibitory Concentration): 16 µM
MIC ([9]; Table 8, NRS1 (VISA), triplicates, 20 hours, read-out: MIC): 4 µM
MIC [10]: 2.8 µg/mL (≈ 8.5 µM)
MIC ([11]; Table 2, VISA HIP07256, read-out: Minimum Inhibitory Concentration): 1.4 µg/mL
MIC ([11]; Table 8, NRS19 (VISA), read-out: MIC): 4 µM
MIC [12, 23]: 1.4 µg/mL
MIC ([12]; Table 8, NRS385, read-out: MIC): 4 µM
MIC ([13]; Table 8, read-out: MIC): 4 µM (≈ 1.32 µg/mL)
MIC [14, 24]: 1.4 µg/mL
MIC ([14]; Table 8, NRS37 (VISA), read-out: MIC): 8 µM
MIC ([15]; NRS 119 / VISA, Table 7, VISA (NRS119), read-out: Minimum Inhibitory Concentration): 4 µM (≈ 1.32 µg/mL)
MIC ([15]; Table 8, NRS119, read-out: MIC): 8 µM (≈ 2.64 µg/mL)
MIC [16]: 5.5 µg/mL (≈ 16.7 µM)
MIC [17]: 1.4 µg/mL (≈ 4.25 µM)
Structure (SMILES): CCCCc1ccc(-c2nc(C)c(/C(C)=N/NC(=N)N)s2)cc1 [Compound 1a]
cells stained with the dye [1]: 1.5%
MBC ([2]; Table 8, ATCC 43300, read-out: MBC): 4 µM (≈ 1.32 µg/mL)
MBC ([5]; Table 8, NRS384, read-out: MBC): 4 µM (≈ 1.32 µg/mL)
MBC ([6]; Table 8, read-out: MBC): 8 µM (≈ 2.64 µg/mL)
MBC ([7]; read-out: MBC): 4 µM (≈ 1.32 µg/mL)
bactericidal effect in time-kill assay ([8]; 12 hour incubation at 37° C.): bactericidal
time to eliminate MRSA completely (reduce CFU to zero) ([8]; MRSA (USA300)): within two hours
MBC ([9]; Table 8, NRS1 (VISA), read-out: MBC): 8 µM (≈ 2.64 µg/mL)
MBC ([11]; Table 8, NRS19 (VISA), read-out: MBC): 8 µM (≈ 2.64 µg/mL)
MBC ([12]; Table 8, NRS385, read-out: MBC): 4 µM (≈ 1.32 µg/mL)
MBC ([13]; Table 8, read-out: MBC): 4 µM (≈ 1.32 µg/mL)
MBC ([14]; Table 8, NRS37 (VISA), read-out: MBC): 8 µM (≈ 2.64 µg/mL)
MBC ([15]; Table 8, NRS119, read-out: MBC): 8 µM (≈ 2.64 µg/mL)

MIC ([4]; Table 2, VRSA): 3 µg/mL
MIC [5, 21]: 3 µg/mL
MIC ([6]; Table 2, read-out: Minimum Inhibitory Concentration): 0.7 µg/mL
MIC [19]: 3 µg/mL (≈ 8.07 µM)
MIC [9, 22]: 0.7 µg/mL
MIC [20]: 1.5 µg/mL (≈ 4.04 µM)
MIC [12, 23]: 3 µg/mL
MIC [14, 24]: 0.7 µg/mL
MIC [16]: 1.5 µg/mL (≈ 4.04 µM)
MIC [17]: 3 µg/mL (≈ 8.07 µM)
Structure (SMILES): CCCCCCCc1ccc(-c2nc(C)c(/C(C)=N/NC(=N)N)s2)cc1 [Compound 1e]
toxicity toward murine macrophage cells [18]: exhibited toxicity; also recorded: toxic
